The target in test [1] is T1, human A1 adenosine receptor (Homo sapiens, UniProt P30542).
T1 construct: expressed in transfected cells
T1 sequence (P30542 1-326): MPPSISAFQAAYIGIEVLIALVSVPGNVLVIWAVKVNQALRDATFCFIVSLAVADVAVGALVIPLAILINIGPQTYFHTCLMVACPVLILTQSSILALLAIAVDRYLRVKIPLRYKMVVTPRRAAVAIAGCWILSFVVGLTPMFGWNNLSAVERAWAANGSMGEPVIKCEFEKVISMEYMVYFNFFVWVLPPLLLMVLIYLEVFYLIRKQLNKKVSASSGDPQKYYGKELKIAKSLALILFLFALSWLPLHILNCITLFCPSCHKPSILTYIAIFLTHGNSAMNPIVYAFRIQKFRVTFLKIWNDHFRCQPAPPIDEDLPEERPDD
The test can be described thus: Binding constants against cloned and expressed human adenosine receptor subtypes (A1). As to conditions: read-out: Binding constant (KD) A1.

In test [2] the test system is protein tyrosine phosphatases in WGA eluates. As to conditions: 1 mM in the buffers.
Experimental: The procedure was modified by decreasing the length of autoradiographic exposure to increase sensitivity. ^32 P-poly Glu:Tyr4:1 substrate was incorporated into the 100% SDS polyacrylamide gel prior to polymerization. WGA eluates which were run on the gels were concentrated on Centricon filters to approximately 2 mg/ml. Aliquots (100 μg) were run on the gels. Gels were washed overnight to remove SDS. The proteins were first fully denatured in 6M guanidine HCl and then, after electrophoresis, renatured by incubation in phosphatase assay buffers containing 0.04% Tween® 40 and high concentrations of dithiothreitol (DTT). Next, the gels were dried and exposed to Kodak X-Omat x-ray film at -70° C. for various times. […] In some experiments, concentrated WGA eluates were treated with the antibody anti-PTPase 1B (5 g) prior to assaying phosphatase activity. The antibody was added to 50 μl concentrated eluate and the sample was incubated for 1 h on a tube vortexer at room temperature. Fifty μl of 50% protein A Agarose were centrifuged in a separate tube at 14,000 g for 30 sec. The supernatant was removed, and at the end of 1 h, the WGA eluate was introduced to the agarose precipitate and vortexing was continued for an additional 30 min. As a control, WGA eluates that were not treated with antibody were also introduced to the gels. […]

Broadly, the Kd is the equilibrium constant for the complex coming apart.

As for `CCCn1c(=O)[nH]c(=O)c2[nH]cnc21` [Enprofylline, 3-n-propylxanthine], the dissociation constant Kd in test [1] was determined as 156 µM.
Take sodium vanadate: the “PTPase bands in in-gel assay” value in test [2] was “Bands disappeared”.

Source of the values: patent US6060481A, “Method for improving insulin sensitivity using an adenosine receptor antagonist” (priority 1999, dated 2000).
